Reference: patent US8841090B2 (priority 2006, dated 2014)
“Also recorded” adds a separate entry of the source. Read-outs that look alike come from different tables or passages of the source.

Assays:
Gal2 permease = target: T1, Gal2 permease (Saccharomyces cerevisiae, UniProt P13181, G90S/H392R/M8V/S50P); assay type: cell-based, S. cerevisiae; conditions: for Competition with L-arabinose transport by Gal2 permease: competing sugars
T1 construct: expressed in transfected cells; host or cells: S. cerevisiae BFY597 (gal2Δ::HIS3, plasmids p138 and p42)
T1 sequence (P13181 whole entry M8V/S50P/G90S/H392R): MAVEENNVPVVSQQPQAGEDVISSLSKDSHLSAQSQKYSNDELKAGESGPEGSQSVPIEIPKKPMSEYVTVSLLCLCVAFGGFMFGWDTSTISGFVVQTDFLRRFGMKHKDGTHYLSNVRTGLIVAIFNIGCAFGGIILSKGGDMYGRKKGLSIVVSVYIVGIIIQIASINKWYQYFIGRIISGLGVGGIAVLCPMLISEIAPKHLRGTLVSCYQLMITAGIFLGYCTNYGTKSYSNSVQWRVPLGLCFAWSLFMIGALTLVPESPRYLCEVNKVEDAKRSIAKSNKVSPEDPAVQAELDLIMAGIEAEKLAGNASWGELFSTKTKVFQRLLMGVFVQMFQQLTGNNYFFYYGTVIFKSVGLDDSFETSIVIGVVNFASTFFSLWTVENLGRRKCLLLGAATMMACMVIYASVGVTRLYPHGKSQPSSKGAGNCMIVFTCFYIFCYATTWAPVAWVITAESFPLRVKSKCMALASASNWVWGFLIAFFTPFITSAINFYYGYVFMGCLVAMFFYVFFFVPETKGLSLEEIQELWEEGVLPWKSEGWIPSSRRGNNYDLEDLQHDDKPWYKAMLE
Method: (§1) Cells are collected in mid-growth and washed twice before suspension in water at 30 mg/ml. Uptake of L-(1-^14C)arabinose (54 mCi/mmol, Moravek Biochemicals Inc.) or D-(1-^14C) galactose (57 mCi/mmol, Amersham Biosciences) is measured as previously described by Stambuk et al. (2003). Assays are performed in 30 seconds to maintain initial rates after appropriate experiments to ensure uptake is linear for at least 1 minute. […] Inhibition and competition assays are performed as previously described by Stambuk et al, (2003).
(§2) The transport characteristics of the KmLat1 and the Gal2 transporters expressed in S. cerevisiae were compared.

PgLAT2 transporter = PgLAT2 transporter (Meyerozyma guilliermondii, UniProt A5DRF8); experiment: L-arabinose transport by PgLAT2 transporter expressed in S. cerevisiae BFY605; conditions: for Competition with L-arabinose uptake by PgLAT2: competing sugars; for Inhibition of L-arabinose transport by PgLAT2: protonophores and H+-ATPase inhibitors
Method: (§3) Cells were collected in mid-growth and washed twice in water before suspension in water at about 30 mg/ml. […] Assays were performed in 5, 10, or 30 second periods to maintain initial rates. Appropriate experiments ensured uptake was linear for at least 1 minute. Transport activity was described as nmoles of labeled sugar transported per mg cell dry weight per minute.

KmLat1 transporter [1] = target: KmLat1 transporter (Kluyveromyces marxianus, UniProt A0ABX6EN84); experiment: L-arabinose transport by KmLat1 expressed in S. cerevisiae, 14C-sugar uptake; assay type: cell-based; conditions: for Competition with L-arabinose transport by KmLat1: competing sugars; for Inhibition of L-arabinose transport by KmLat1: protonophores and H+-ATPase inhibitors
KmLat1 transporter (Kluyveromyces marxianus, UniProt A0ABX6EN84), sequence (A0ABX6EN84 entry or part of it): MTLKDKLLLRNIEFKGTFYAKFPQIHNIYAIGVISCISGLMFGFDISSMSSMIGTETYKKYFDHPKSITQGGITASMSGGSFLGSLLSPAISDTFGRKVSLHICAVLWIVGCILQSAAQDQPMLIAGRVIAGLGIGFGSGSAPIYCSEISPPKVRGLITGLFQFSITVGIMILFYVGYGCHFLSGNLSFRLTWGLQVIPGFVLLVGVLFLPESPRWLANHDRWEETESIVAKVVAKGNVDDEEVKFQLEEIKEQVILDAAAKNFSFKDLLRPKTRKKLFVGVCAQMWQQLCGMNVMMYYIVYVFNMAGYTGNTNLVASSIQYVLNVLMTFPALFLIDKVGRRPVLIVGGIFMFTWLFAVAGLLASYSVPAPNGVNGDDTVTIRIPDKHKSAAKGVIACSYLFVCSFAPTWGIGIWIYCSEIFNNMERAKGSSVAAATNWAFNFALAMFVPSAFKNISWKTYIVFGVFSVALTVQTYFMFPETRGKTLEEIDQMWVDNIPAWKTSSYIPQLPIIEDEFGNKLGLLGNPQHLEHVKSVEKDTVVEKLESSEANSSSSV
Method: as §1, §2

P. guilliermondii Y-2075 = experiment: Sugar transport in wild type P. guilliermondii Y-2075 grown on L-arabinose; assay type: cell-based, Pichia guilliermondii
Method: as §3

KmLat1 transporter [2] = experiment: L-arabinose transport by KmLat1 expressed in S. cerevisiae, 14C-sugar uptake; assay type: cell-based, Kluyveromyces marxianus
Method: as §1, §2

[3] = competing sugar 900 mM, 30 mM labeled L-arabinose, no sugar = 100
[4] = inhibitor NaN3 10 mM, others 5 mM, […] labeled L-arabinose, no inhibitor = 100
[5] = inhibitor NaN3 10 mM, others 5 mM, 0.33 mM labeled L-arabinose, none = 100

**Q.** With O=C[C@H](O)[C@@H](O)[C@H](O)CO [Xylose] as the compound, how does the “Relative L-arabinose transport (%) Gal2” value (Gal2 permease; [3]) read?
**A.** 25%

**Q.** And the “Competition with L-arabinose transport by Gal2 permease” value (Gal2 permease)?
**A.** significantly reduced

**Q.** What about the “Relative L-arabinose transport S. cerevisiae (PgLAT2 transporter)” value (PgLAT2 transporter) of the same compound?
**A.** 0

**Q.** And the “Competition with L-arabinose uptake by PgLAT2” value (“Competition … by PgLAT2” for short) (PgLAT2 transporter)?
**A.** inhibited

**Q.** And the “Relative L-arabinose transport (%) KmLat1” value (KmLat1 transporter [1])?
**A.** 25%

**Q.** What about the “Competition with L-arabinose transport by KmLat1” value (“Competition … by KmLat1” below) (KmLat1 transporter [1]) of the same compound?
**A.** out-competed

**Q.** And the “Relative L-arabinose transport P. guilliermondii” value (P. guilliermondii Y-2075)?
**A.** 4

**Q.** And the “Reduction of uptake of labeled L-arabinose” value (P. guilliermondii Y-2075; 100× un-labeled competing sugar)?
**A.** 96%

**Q.** With O=C[C@H](O)[C@@H](O)[C@@H](O)[C@H](O)CO [Galactose] as the compound, how does the “Vmax for galactose transport by Gal2p” value (Gal2 permease; BFY597) read?
**A.** 76 nmol/mg/min

**Q.** And the “Relative L-arabinose transport (%) Gal2” value (Gal2 permease; [3])?
**A.** 3%

**Q.** What about the “Competition with L-arabinose transport by Gal2 permease” value (Gal2 permease) of the same compound?
**A.** significantly reduced; also recorded: out-competed

**Q.** What about the Km (Gal2 permease; read-out: Km for galactose transport by Gal2p, BFY597) of the same compound?
**A.** 25 mM

**Q.** What about the “Competition … by PgLAT2” value (PgLAT2 transporter) of the same compound?
**A.** inhibited

**Q.** What about the “Relative L-arabinose transport (%) KmLat1” value (KmLat1 transporter [2]; competing sugar 900 mM (maltose 450 mM), 30 mM labeled L-arabinose, no sugar = 100) of the same compound?
**A.** 23%

**Q.** And the “Competition … by KmLat1” value (KmLat1 transporter [2]; competing sugars)?
**A.** out-competed

**Q.** What does the source list for C(=NC1CCCCC1)=NC1CCCCC1 [DCCD]?
**A.** Relative L-arabinose transport (%) Gal2 (Gal2 permease; [4]): 69%; Relative L-arabinose transport S. cerevisiae (PgLAT2 transporter) (PgLAT2 transporter): 36; Inhibition of L-arabinose transport by PgLAT2 (PgLAT2 transporter): significant inhibition; Relative L-arabinose transport (%) KmLat1 (KmLat1 transporter [1]): 55%; Inhibition of L-arabinose transport by KmLat1 (KmLat1 transporter [1]): Neither is KmLat1 inhibited; Relative L-arabinose transport P. guilliermondii (P. guilliermondii Y-2075): 22

**Q.** Which “Relative L-arabinose transport (%) Gal2” value (Gal2 permease; [4]) does the source give for CC/C(=C(/CC)c1ccc(O)cc1)c1ccc(O)cc1 [DESB] here?
**A.** 81%

**Q.** And the “Relative L-arabinose transport S. cerevisiae (PgLAT2 transporter)” value (PgLAT2 transporter; [5])?
**A.** 1

**Q.** What about the “Inhibition of L-arabinose transport by PgLAT2” value (PgLAT2 transporter) of the same compound?
**A.** significant inhibition

**Q.** What about the “Relative L-arabinose transport (%) KmLat1” value (KmLat1 transporter [1]; [4]) of the same compound?
**A.** 100%

**Q.** And the “Inhibition of L-arabinose transport by KmLat1” value (KmLat1 transporter [1])?
**A.** Neither is KmLat1 inhibited

**Q.** What about the “Relative L-arabinose transport P. guilliermondii” value (P. guilliermondii Y-2075; [5]) of the same compound?
**A.** 8

**Q.** How did the “Relative L-arabinose transport S. cerevisiae (PgLAT2 transporter)” value (PgLAT2 transporter) turn out when OC[C@H]1O[C@H](O[C@H]2[C@H](O)[C@@H](O)C(O)O[C@@H]2CO)[C@H](O)[C@@H](O)[C@@H]1O (mixture of isomers) [Maltose] was run?
**A.** 30

**Q.** And the “Competition … by PgLAT2” value (PgLAT2 transporter)?
**A.** to a lesser extent

**Q.** And the “Relative L-arabinose transport (%) KmLat1” value (KmLat1 transporter [1])?
**A.** 38%

**Q.** And the “Competition … by KmLat1” value (KmLat1 transporter [1])?
**A.** out-competed

**Q.** What does the source list for O=[N+]([O-])c1ccc(O)c([N+](=O)[O-])c1 [DNP]?
**A.** Relative L-arabinose transport (%) Gal2 (Gal2 permease; [4]): 72%; Relative L-arabinose transport S. cerevisiae (PgLAT2 transporter) (PgLAT2 transporter; [5]): 4; Inhibition of L-arabinose transport by PgLAT2 (PgLAT2 transporter): significant inhibition; Relative L-arabinose transport (%) KmLat1 (KmLat1 transporter [1]; [4]): 75%; Inhibition of L-arabinose transport by KmLat1 (KmLat1 transporter [1]): not significantly inhibited; Relative L-arabinose transport P. guilliermondii (P. guilliermondii Y-2075; [5]): 0

**Q.** How did the “Relative L-arabinose transport (%) Gal2” value (Gal2 permease; [4]) turn out when N#CC(C#N)=NNc1cccc(Cl)c1 [CCCP] was run?
**A.** 46%

**Q.** And the “Relative L-arabinose transport S. cerevisiae (PgLAT2 transporter)” value (PgLAT2 transporter)?
**A.** 2

**Q.** What about the “Inhibition of L-arabinose transport by PgLAT2” value (PgLAT2 transporter) of the same compound?
**A.** significant inhibition

**Q.** What about the “Relative L-arabinose transport (%) KmLat1” value (KmLat1 transporter [1]) of the same compound?
**A.** 61%

**Q.** What about the “Inhibition of L-arabinose transport by KmLat1” value (KmLat1 transporter [1]) of the same compound?
**A.** not significantly inhibited

**Q.** And the “Relative L-arabinose transport P. guilliermondii” value (P. guilliermondii Y-2075; [5])?
**A.** 0

**Q.** Which results are given for [N-]=[N+]=[N-].[Na+] [NaN3]?
**A.** Relative L-arabinose transport (%) Gal2 (Gal2 permease; [4]): 66%; Relative L-arabinose transport S. cerevisiae (PgLAT2 transporter) (PgLAT2 transporter; [5]): 16; Inhibition of L-arabinose transport by PgLAT2 (PgLAT2 transporter): significant inhibition; Relative L-arabinose transport (%) KmLat1 (KmLat1 transporter [1]; [4]): 11%; Inhibition of L-arabinose transport by KmLat1 (KmLat1 transporter [1]): not significantly inhibited; Relative L-arabinose transport P. guilliermondii (P. guilliermondii Y-2075; [5]): 1
